Measured values from patent publication US5968912A, “Methods for immunosuppressing” (Immune Modulation, Inc., priority 1997, dated 1999).
Several values for one entry are separate records, joined by “and”; a condition that tells them apart may be missing. Equal entries are not always repeated. Entries after “also recorded” stand apart in the source; their conditions may differ.

How the values were obtained:
[1] = system: tetanus toxoid-specific T-cell proliferation (PBMC); experiment: cells; format: cell-based, human
[2] = system: GVHD in (B6 x C3H)F1 mice; experiment: GVHD in (B6 x C3H)F1 recipients of cells from pretreated C57BL/6 donor mice; format: in vivo, mouse
Procedure: Generation of F1 Recipient Mice: Male mice of inbred strains, C57BL/6 (H-2^b haplotype) were mated with female mice of inbred strains, C3 H/j (H-2^k haplotype). The resulting hybrids (C57BL/6×C3 H/j)F1 were used as recipients of the B6 spleen cells.
(§1) Elimination of endogenous and inducible NK cell activity from the cell donor mice (C57BL/6)
(§2) Six- to ten-week old C57BL/6 mice were treated for 24 hours orally or intravenously with HE-33. Orally-treated mice received 400 mg/kg twice a day (Bid), and intravenously treated mice received a single 100 mg/kg i.v.
Irradiation of Recipient (B6 ×C3 H)F1 Mice: Ten- to twelve- week old (B6 ×C3 H)F1 mice were sublethally irradiated with a Cobalt-60 gamma source at 450 rads in a single dose.
Induction of GVHD: GVHD was induced in irradiated (B6 ×C3 H)F1 mice by the intravenous injection of 5×10^7 donor B6 (H-2^b) spleen and lymph node cells.

[3] = system: skin graft rejection (Balb/C tail skin on C57BL/6 mice); experiment: Skin graft survival in mice; format: in vivo, mouse
Procedure: Effect of HE-33 on Skin-Grafting
Balb/C and C57BL/6 mice are genetically histoincompatible in that Balb/C is of haplotype H-2^d whereas C57BL/6 is of haplotype H-2^b. The surgical procedure used in these experiments was performed according to the procedures reported by Matriano, J. E. et al. (J. Immunol., 1996, 156:4114-4119).
Mice in groups 4 and 5 were orally administered HE-33 daily from 2 days prior to grafting. Rejection was assessed by observing redness and dryness of the graft (Natriano, J. E. et al., J. Immunol., 1996, 153:1505-1514). At a dose of 100 mg/kg I.V., HE-33 prolonged graft survival by approximately 4 days.
C57BL/6 mice were grafted with tail skin from Balb/c mice. Drug treatment
was started two days prior to grafting. Casts were removed on day 6 and
survival of the graft was scored everyday. Rejection was defined on chang
in thickness, dryness and >80% redness of the graft.

[4] = system: NK cell activity (YAC-I cells as target); experiment: NK cell cytotoxicity assay, cells of pretreated donor mice; format: in vivo, mouse (C57BL/6); conditions: spleen, effector/target 100:1
Procedure: as §1, §2
NK Cell cytotoxicity assay: At the end of the 24 hour pre-treatment with HE-33, all treated mice and control, non-treated mice (i.e., mice treated with vehicle, PBS) were sacrificed by cervical dislocation. Spleens and lymph nodes were removed and single-cell suspension of pooled spleen and lymph nodes from mice in each group of donor were prepared in RPMI-1640 supplemented with 10% fetal bovine serum (FBS) and 1% penicillin/streptomycin. Target cells were ^51 Cr-labeled Moloney leukemia virus-induced lymphoma (YAC) tumor cells. Different effector:target cell ratios were cultured in triplicate samples in U-bottomed microtiter plates for 4 hours at 37° C. in a humidified atmosphere containing 5% CO2. The microtiter plates were then centrifuged, and 100-μL aliquots of supernatants were assayed for ^51 Cr release. Results were expressed as percent lysis and percent suppression of lysis. The method of Ojo-Amaize, E. et. al., Scand. Journal of Immunology, 1978, 7: 297-306, was used for the NK assays.

[5] = system: mononuclear leukocytes (Two-way MLR); experiment: Two-way mixed leukocyte reaction (MLR), 3H-thymidine incorporation; format: cell-based, human
[6] = system: anti-CD3-induced T-cell proliferation (PBMC); experiment: Anti-CD3-induced T-cell proliferation; format: cell-based, human; conditions: anti-CD3 1 ng/mL
Procedure: Anti-T cell receptor (TCR)/CD3 induced T cell proliferation
PBMC of a healthy volunteer were cultured in 96-well microtiter plates at 2×10^5 cells/well. […] Cultures were incubated for 3 days at 37° C. in a 5% CO2 incubator. Proliferative response was determined by incorporation of ^3 H-thymidine.
Anti-CD3 mAb was used at 1 ng/mL concentration.

[7] = system: IL-2; experiment: IL-2 production in PHA-stimulated PBMC cultures; format: cell-based, human; design: % Inhibition of IL-2 production: concentration or dose not given beside the values
Procedure: (§3) Production of autocrine growth factors (IL-2, IL-4, IL-10 and Interferon-gamma) in PHA-stimulated human PBMC cultures
(§4) Culture supernatants were collected at the times indicated and frozen at -20° C. At the end of 96 hr., all supernatants were assayed by enzyme immunoassay for the presence of the cytokines: interleukin-2, -4, -10 and interferon (IFN)-gamma. Results were expressed in pg/mL concentration of cytokine and % inhibition of cytokine production.

[8] = system: IL-4; experiment: IL-4 production in PHA-stimulated PBMC cultures; format: cell-based, human; design: % Inhibition of IL-4 production: concentration or dose not given beside the values
Procedure: as §3, §4

[9] = system: Human T-lymphocyte-mediated cytolysis (cytotoxic CD8+ T-cells); experiment: One-way MLR-generated T-lymphocyte-mediated cytolysis (CTL assay, 51Cr release); format: cell-based
[10] = system: IL-10; experiment: IL-10 production in PHA-stimulated PBMC cultures; format: cell-based, human; design: % Inhibition of IL-10 production: concentration or dose not given beside the values
Procedure: as §3, §4

## CCCN(CCC)c1ncnc2c1ncn2[C@@H]1O[C@@H]2COP(=O)(O)O[C@H]2[C@H]1O [HE-33, N^6,N^6 -di-n-Propyl-c-AMP]
[1]; 1 μg/mL
  Proliferation: 358 CPM
[1]; 10 μg/mL
  Proliferation: 94 CPM
[1]; Homo sapiens, T-cell, 1 μg/mL
  inhibition at 1 µg/mL: 65%
[2]; FIG. 2
  Mean survival time (MST) of the mice that died: 46 days
[2]; by 55 days post cell transfer, FIG. 2
  Recipients that had died: 30%
[2]; by day 30 post cell transfer, FIG. 2, P<0.0000001
  Recipients that had died: none
[2]; day 33 post cell transfer, FIG. 3
  Recipients that had died: 50%
[2]; oral versus intravenous
  Prevention of GVHD by route of administration, in words: the oral route was better than the i.v. route; also recorded: Both the oral and intravenous routes of administration of HE-33 were effective in preventing GVHD
[3]; 50 mg/kg (I.V.)
  Mean Survival Time: 10.25 days
[3]; 100 mg/kg (I.V.)
  Mean Survival Time: 13.4 days
[3]; 100 mg/kg I.V.
  Prolongation of graft survival: approximately 4 days
[3]; 200 mg/kg (oral)
  Mean Survival Time: 9.2 days
[3]; 400 mg/kg (oral)
  Mean Survival Time: 9.8 days
[4]; 100 mg/kg IV
  Percent Lysis (NK cell activity): 14%
[4]; 400 mg/kg (Bid) oral
  Percent Lysis (NK cell activity): 5%
  Percent Suppression of NK cell activity: ~80% and 76%
[5]; Homo sapiens, Leukocyte, read-out: IC50, drug concentration capable of inducing a 50% inhibition
  IC50: 0.1 to 1 µM
[5]; Homo sapiens, Leukocyte, 0.01 μM
  inhibition at 0.01 µM: 28%
[5]; Homo sapiens, Leukocyte, 0.1 μM
  inhibition at 0.1 µM: 40%
[5]; Homo sapiens, Leukocyte, 1 μM
  inhibition at 1 µM: 81%
[5]; Homo sapiens, Leukocyte, 10 μM
  inhibition at 10 µM: 96%
[5]; Homo sapiens, Leukocyte, 100 μM
  inhibition at 100 µM: 99.2%
[5]; two-way MLR
  Inhibitory capacity on two-way MLR, in words: comparable to that of cyclosporin (CsA)
[6]; 10 μM
  Proliferation: 289 CPM
[6]; 100 μM
  Proliferation: 43 CPM
[6]; Homo sapiens, T-cell, 10 μM
  inhibition at 10 µM: 77%
[6]; Homo sapiens, T-cell, 100 μM
  inhibition at 100 µM: 97%
[7]; 24 hours
  % Inhibition of IL-2 production: 0%
  IL-2 production: 418 pg/mL
[7]; 48 hours
  % Inhibition of IL-2 production: 76%
  IL-2 production: 148 pg/mL
[7]; 72 hours
  % Inhibition of IL-2 production: 70%
  IL-2 production: 51 pg/mL
[7]; 96 hours
  % Inhibition of IL-2 production: 0%
  IL-2 production: 48 pg/mL
[8]; 24 hours
  % Inhibition of IL-4 production: 0%
  IL-4 production: 1041 pg/mL
[8]; 48 hours
  % Inhibition of IL-4 production: 87%
  IL-4 production: 193 pg/mL
[8]; 72 hours
  % Inhibition of IL-4 production: 26%
  IL-4 production: 860 pg/mL
[8]; 96 hours
  % Inhibition of IL-4 production: 25%
  IL-4 production: 101 pg/mL
[9]; 100 μM, E:T 25:1
  % Specific Lysis: 4%
[9]; Homo sapiens, T-cell, E:T 25:1, read-out: % Inhibition of lysis
  inhibition at 100 µM: 80%
[10]; 24 hours
  % Inhibition of IL-10 production: 21%
  IL-10 production: 441 pg/mL
[10]; 48 hours
  % Inhibition of IL-10 production: 0%
  IL-10 production: 1304 pg/mL
[10]; 72 hours
  % Inhibition of IL-10 production: 0%
  IL-10 production: 790 pg/mL
[10]; 96 hours
  % Inhibition of IL-10 production: 0%
  IL-10 production: 991 pg/mL
